Data from patent US20070066996A1, “Modafinil-based neurorehabilitation of impaired neurological function associated with brian injury” (priority 2003, published 2007).
Entries after “also recorded” stand apart in the source; their conditions may differ. Marks after values point to notes of the source that are not given here.

Experiments:
[1] = system: extracellular dopamine; conditions: Wisor et al., J. Neuroscience 2001; cited from earlier work
[2] = system: chronic post-TBI patients with motor deficits; assay: Open-label study: overall functional motor performance and reported adverse effects; assay type: in vivo, human; conditions: two patients
Experimental: A clinical study was performed to evaluate the effect of modafinil on the functional outcome of the paretic arm of patients recovering from a brain injury.
(§1) Two chronic post-TBI patients with motor deficits were treated for two consecutive weeks with modafinil (a single 200 mg/day dose, orally). Additionally, three hours after administration of the drug, these patients received one hour of occupational therapy in the morning and one hour of motor training at home in the afternoon. Primary outcomes were the pinch strength measured with a mechanic dynamometer, the number of blocks that the patient can pass in one minute in a box and block test, and the time required to complete a grooved pegboard test as described below.
(§2) Patients were assessed at baseline, treated for two weeks, assessed at the end of the treatment, and assessed again 90 days after commencement of treatment.
(§3) Patients were chronic post-traumatic brain injured individuals that were treated for two consecutive weeks with a 200 mg/day, single dose, of modafinil from Monday through Friday. Additionally, the patients received one hour of occupational therapy three hours after the oral intake of the drug and one hour of motor training at home. Primary outcomes were the pinch strength measured with a mechanic dynamometer, the number of blocks that the patient could pass in one minute in a box and block test, and the time required to complete a grooved pegboard at baseline. Primary outcomes were assessed at two weeks and 90 days from commencement of treatment.

[3] = system: chronic post-TBI patients with motor deficits; assay: Box and Block Test of manual dexterity, open-label modafinil study; assay type: in vivo, human
Experimental: as §1
The “Box and Block Test” is a standardized test of manual dexterity, which provides a baseline for upper extremity manual dexterity and gross motor coordination. The test is quick and simple to administer and uses […] (1″) colored wooden blocks.
as §2, §3

[4] = system: dopamine transporter knock-out mice; conditions: Wisor et al. 2001; cited from earlier work
[5] = system: chronic post-TBI patients with motor deficits; assay: Pinch strength (mechanic dynamometer), open-label modafinil study; assay type: in vivo, human
Experimental: as §1
The Pinch Force Dynamometer is a hand-held device capable of measuring instantaneous strength of the thumb and opposing finger or groupings of fingers as a function of time. The principle components are a pinch force transducer, instrumentation amplifier, and associated cables. Dynamic voltage representing instantaneous finger(s) pinch strength as a function of time is taken from the output of the instrumentation amplifier and sent to a laptop computer or to a data acquisition system for data manipulation, display, correlation with other data sources, and/or storage.
as §2, §3

[6] = system: individuals who have sustained a brain injury; conditions: individuals with brain injury; L-dopa at high doses; co-filed international application; cited from earlier work

NC(=O)C[S+]([O-])C(c1ccccc1)c1ccccc1 (stereo not drawn) [modafinil, 2-[(diphenylmethyl)sulfinyl]acetamide]
extracellular dopamine [1]: increased extracellular dopamine | persistence of the improvements ([2]; 90 days after commencement of treatment): sustained at 90 days | adverse effect reported with the medication ([2]; modafinil 200 mg/day orally, two weeks): Neither of the patients reported any adverse effect; also recorded: did not report any adverse effect | functional motor performance in the intact hand ([2]; two-week course of modafinil): slight improvement | functional motor performance in the paretic hands ([2]; two-week course of modafinil 200 mg/day orally): improved functional motor performance | Box and Block ([3]; Patient 1, affected hand, 14 days, baseline 34): 46 # blocks passed in 1 min | Box and Block ([3]; Patient 1, affected hand, 90 days, baseline 34): 46 # blocks passed in 1 min | Box and Block ([3]; Patient 1, intact hand, 14 days, baseline 54): 59 # blocks passed in 1 min | Box and Block ([3]; Patient 1, intact hand, 90 days, baseline 54): 55 # blocks passed in 1 min | Box and Block ([3]; Patient 2, affected hand, 14 days, baseline 30): 40 # blocks passed in 1 min | Box and Block ([3]; Patient 2, affected hand, 90 days, baseline 30): 40 # blocks passed in 1 min | Box and Block ([3]; Patient 2, intact hand, 14 days, baseline 54 (table) / 62): 65 # blocks passed in 1 min | Box and Block ([3]; Patient 2, intact hand, 90 days, baseline 54 (table) / 62): 76 # blocks passed in 1 min | response to the action of modafinil [4]: unresponsive | Pinch Strength ([5]; Patient 1, affected hand, 14 days, modafinil 200 mg/day orally for two weeks plus therapy, baseline 14.3): 16.8 Pounds | Pinch Strength ([5]; Patient 1, affected hand, 90 days from commencement, baseline 14.3): 17.6 Pounds | Pinch Strength ([5]; Patient 1, intact hand, 14 days, baseline 13.5): 14.6 Pounds | Pinch Strength ([5]; Patient 1, intact hand, 90 days, baseline 13.5): 15 Pounds | Pinch Strength ([5]; Patient 2, affected hand, 14 days, baseline 17): 21.3 Pounds | Pinch Strength ([5]; Patient 2, affected hand, 90 days, baseline 17): 19.3 Pounds | Pinch Strength ([5]; Patient 2, intact hand, 14 days, baseline 23): 24 Pounds | Pinch Strength ([5]; Patient 2, intact hand, 90 days, baseline 23): 23.6 Pounds

CN1CCc2cccc3c2[C@H]1Cc1ccc(O)c(O)c1-3 [apomorphine]
treating impaired neurological function, including emergence from coma and other altered consciousness states [6]: particularly effective

N[C@@H](Cc1ccc(O)c(O)c1)C(=O)O [L-dopa]
treating impaired neurological function, including emergence from coma and other altered consciousness states [6]: particularly effective
